Assay results taken from patent US7119073B2, “Peptides and their use as inhibitors of hepatitis C virus ns3 protease” (Istituto Di Ricerche Di Biologia Molecolare P. Angeletti SpA, priority 2001, dated 2006).

What follows are compounds tested against T1, full length NS3 protein noncovalently complexed with the full-length NS4A cofactor protein (NS3/NS4A complex) (Hepatitis C virus genotype 1b, UniProt P26663) (assay: Full-length NS3-NS4A heterodimer protein assay (Assay A)). Details: not given.
T1 construct: full length NS3 protein spanning residues 1027–1657 of the HCV polyprotein
T1 sequence (P26663 1027-1657): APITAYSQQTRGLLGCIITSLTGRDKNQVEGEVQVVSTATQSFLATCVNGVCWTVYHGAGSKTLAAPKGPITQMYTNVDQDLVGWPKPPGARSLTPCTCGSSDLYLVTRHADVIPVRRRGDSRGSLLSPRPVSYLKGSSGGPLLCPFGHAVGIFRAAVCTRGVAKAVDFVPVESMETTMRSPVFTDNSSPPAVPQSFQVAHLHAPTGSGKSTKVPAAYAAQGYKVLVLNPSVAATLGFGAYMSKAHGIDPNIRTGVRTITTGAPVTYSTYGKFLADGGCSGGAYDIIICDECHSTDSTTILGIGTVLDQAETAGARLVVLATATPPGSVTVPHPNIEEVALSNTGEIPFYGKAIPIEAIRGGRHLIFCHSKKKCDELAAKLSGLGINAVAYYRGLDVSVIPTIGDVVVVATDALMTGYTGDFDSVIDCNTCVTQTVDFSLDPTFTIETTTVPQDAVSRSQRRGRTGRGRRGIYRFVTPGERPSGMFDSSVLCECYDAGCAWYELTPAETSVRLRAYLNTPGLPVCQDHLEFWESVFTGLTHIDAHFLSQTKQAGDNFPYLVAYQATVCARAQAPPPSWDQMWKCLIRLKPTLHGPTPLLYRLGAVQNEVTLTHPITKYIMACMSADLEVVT
T1 sequence (P26663 1658-1711): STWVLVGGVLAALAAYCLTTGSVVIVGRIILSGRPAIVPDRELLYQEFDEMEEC
Type: biochemical, hepatitis C virus (HCV)
Method: Full-Length NS3-NS4A Heterodimer Protein Assay (Assay A)
(Gallinari, P., Paolini, C., Brennan, D., Nardi, C., Steinkühler, C. and De Francesco, R. Modulation of hepatitis C virus NS3 protease and helicase activities through the interaction with NS4A. Biochemistry 38, 5620–5632, 1999)
In this assay the full length NS3 protein spanning residues 1027–1657 of the HCV polyprotein, noncovalently complexed with the full-length NS4A cofactor protein (residues 1658–1711) was used. Assays were performed in 60 μl of a buffer containing 50 mM Hepes pH 7.5, 0.15 M NaCl, 0.1% (v/v) Triton X-100, 15% (v/v) glycerol, 10 mM DTT, 2 nM NS3/NS4A complex. To this assay mix 10 μM (final concentration) of a peptide substrate corresponding to the NS5AB cleavage site and having the sequence of the NS5A-NS5B peptide, were added. Incubation times at 23° C. were adjusted to obtain <10% conversion. Reactions were stopped by the addition of 40 μl of 1% TFA. Cleavage was determined by HPLC using a Merck-Hitachi chromatograph equipped with an autosampler. 80 μl samples were injected on a Lichrospher C18 reversed phase cartridge column (4×74 mm, 5 μm, Merck) and fragments were separated using a 10–40% acetonitrile gradient at 5%/min using a flow rate of 2.5 ml/min. Peak detection was done by monitoring both the absorbance at 220 nm and tryptophan fluorescence (λex=280 nm, λem=350 nm). Cleavage products were quantitated by integration of chromatograms with respect to appropriate standards. Kinetic parameters were calculated from nonlinear least-squares fit of initial rates as a function of substrate concentration with the help of a Kaleidagraph software, assuming Michaelis-Menten kinetics.
Ki values of peptide inhibitors were calculated from substrate titration experiments performed in the presence of increasing amounts of inhibitor. Experimental data sets were simultaneously fitted to eg.1 using a multicurve fit macro with the help of a Sigmaplot software: V=(VmaxS)/(Km([…])+S); (eq.1) Alternatively, Ki values were derived from IC50 values, calculated using a four-parameter logistic function, according to eq.2: IC50=(1+S/Km)Ki (eq.2)
With CC(C)C[C@H](NC(=O)C1(Cc2ccsc2C(=O)O)Cc2ccccc2N1)C(=O)N[C@@H](CC(F)F)C(=O)NCCc1ccc(C(=O)O)cc1Cl (single isomer, unassigned) [Compound 705] the IC50 was under 100 µM.
With CC(C)C[C@H](NC(=O)C1(Cc2ccsc2C(=O)O)Cc2ccccc2N1)C(=O)N[C@@H](CC(F)F)C(=O)NCCc1cccc(/C=C/C(=O)O)c1 (single isomer, unassigned) [Compound 706] the IC50 was under 100 µM.

Same assay, conditions: Table 5; full-length NS3/NS4A; read-out: AssayA
CC(C)COC(=O)N[C@H](C(=O)N1C[C@H](C2CCCCC2)C[C@H]1C(=O)N[C@@H](CC(F)F)C(=O)NCCc1ccc(C(=O)O)cc1F)C(C)C [Compound 531] gave an IC50 of under 10 µM.
With CC(C)COC(=O)N[C@H](C(=O)N1C[C@H](C2CCCCC2)C[C@H]1C(=O)N[C@@H](CC(F)F)C(=O)NCCc1ccc(C(=O)O)cc1Cl)C(C)C [Compound 532] the IC50 was under 1 µM.
CC[C@H](C)[C@H](NC(=O)OCC(C)C)C(=O)N1C[C@H](C2CCCCC2)C[C@H]1C(=O)N[C@@H](CC(F)F)C(=O)NCCc1c(F)cc(C(=O)O)cc1F [Compound 533] was tested, and the IC50 was under 1 µM.
CC[C@H](C)[C@H](NC(=O)OCC(C)C)C(=O)N1C[C@H](c2ccccc2)C[C@H]1C(=O)N[C@@H](CC(F)F)C(=O)NCCc1c(F)cc(C(=O)O)cc1F [Compound 534] was tested, and the IC50 was under 10 µM.
CC[C@@H](C)[C@H](NC(=O)OCC(C)C)C(=O)N1C[C@H](C2CCCCC2)C[C@H]1C(=O)N[C@@H](CC(F)F)C(=O)NCCc1c(F)cc(C(=O)O)cc1F [Compound 535] showed an IC50 of under 1 µM.
For CC(C)COC(=O)N[C@H](C(=O)N1C[C@H](C2CCCCC2)C[C@H]1C(=O)N[C@@H](CC(F)F)C(=O)NCCc1c(F)cc(C(=O)O)cc1F)C(C)(C)C [Compound 536], the IC50 was under 10 µM.
With CC(C)COC(=O)N[C@H](C(=O)N1C[C@H](c2ccccc2)C[C@H]1C(=O)N[C@@H](CC(F)F)C(=O)NCCc1c(F)cc(C(=O)O)cc1F)C(C)(C)C [Compound 537] the IC50 was under 10 µM.
In the case of CC(C)COC(=O)N[C@H](C(=O)N1C[C@H](C2CCCCC2)C[C@H]1C(=O)N[C@@H](CC(F)F)C(=O)NCCc1c(F)cc(C(=O)O)cc1F)C1CCCC1 [Compound 538], the IC50 is reported as under 1 µM.
CC(C)[C@H](NC(=O)OCC1CC1)C(=O)N1C[C@H](C2CCCCC2)C[C@H]1C(=O)N[C@@H](CC(F)F)C(=O)NCCc1c(F)cc(C(=O)O)cc1F [Compound 540] showed an IC50 of under 1 µM.
In the case of CC(C)[C@H](NC(=O)OC1CCCC1)C(=O)N1C[C@H](C2CCCCC2)C[C@H]1C(=O)N[C@@H](CC(F)F)C(=O)NCCc1c(F)cc(C(=O)O)cc1F [Compound 541], the IC50 is reported as under 1 µM.
Work on CC(C)[C@H](NC(=O)OCC1CCCC1)C(=O)N1C[C@H](C2CCCCC2)C[C@H]1C(=O)N[C@@H](CC(F)F)C(=O)NCCc1c(F)cc(C(=O)O)cc1F [Compound 542] yielded an IC50 of under 10 µM.
In the case of CC(C)COC(=O)N[C@H](C(=O)N1C[C@H](SCc2ccccc2)C[C@H]1C(=O)N[C@@H](CC(F)F)C(=O)NCCc1c(F)cc(C(=O)O)cc1F)C(C)C [Compound 544], the IC50 is reported as under 10 µM.
Compound COc1cccc(S[C@@H]2C[C@@H](C(=O)N[C@@H](CC(F)F)C(=O)NCCc3c(F)cc(C(=O)O)cc3F)N(C(=O)[C@@H](NC(=O)OCC(C)C)C(C)C)C2)c1 [Compound 545] has an IC50 of under 1 µM.
COc1cccc(S(=O)(=O)[C@@H]2C[C@@H](C(=O)N[C@@H](CC(F)F)C(=O)NCCc3c(F)cc(C(=O)O)cc3F)N(C(=O)[C@@H](NC(=O)OCC(C)C)C(C)C)C2)c1 [Compound 547] gave an IC50 of under 1 µM.
Compound CCCS[C@@H]1C[C@@H](C(=O)N[C@@H](CC(F)F)C(=O)NCCc2c(F)cc(C(=O)O)cc2F)N(C(=O)[C@@H](NC(=O)OCC(C)C)C(C)C)C1 [Compound 548] has an IC50 of under 1 µM.
In the case of CCC[S+]([O-])[C@@H]1C[C@@H](C(=O)N[C@@H](CC(F)F)C(=O)NCCc2c(F)cc(C(=O)O)cc2F)N(C(=O)[C@@H](NC(=O)OCC(C)C)C(C)C)C1 (stereo partly shown) [Compound 549], the IC50 is reported as under 10 µM.
CCCS(=O)(=O)[C@@H]1C[C@@H](C(=O)N[C@@H](CC(F)F)C(=O)NCCc2c(F)cc(C(=O)O)cc2F)N(C(=O)[C@@H](NC(=O)OCC(C)C)C(C)C)C1 [Compound 550] was tested, and the IC50 was under 1 µM.
CC(C)COC(=O)N[C@H](C(=O)N1C[C@H](S(=O)(=O)C2CCCCC2)C[C@H]1C(=O)N[C@@H](CC(F)F)C(=O)NCCc1c(F)cc(C(=O)O)cc1F)C(C)C [Compound 553] was tested, and the IC50 was under 1 µM.
In the case of CC(C)COC(=O)N[C@H](C(=O)N1C[C@H](c2ccccc2)C[C@H]1C(=O)N[C@@H](CC(F)F)C(=O)NCCc1c(F)cc(-c2nn[nH]n2)cc1F)C(C)C [Compound 554], the IC50 is reported as under 1 µM.
CC(C)COC(=O)N[C@H](C(=O)N1C[C@H](S(=O)(=O)C2CCCCC2)C[C@H]1C(=O)N[C@@H](CC(F)F)C(=O)NCCc1c(F)cc(-c2nn[nH]n2)cc1F)C(C)C [Compound 556] gave an IC50 of under 1 µM.
CC(C)COC(=O)N[C@H](C(=O)N1C[C@H](C2CCCCC2)C[C@H]1C(=O)N[C@@H](CC(F)F)C(=O)NCCc1c(F)cc(C(=O)NS(C)(=O)=O)cc1F)C(C)C [Compound 557] was tested, and the IC50 was under 1 µM.
Work on CC(C)COC(=O)N[C@H](C(=O)N1C[C@H](c2ccccc2)C[C@H]1C(=O)N[C@@H](CC(F)F)C(=O)NCCc1cccc(/C=C/C(=O)O)c1)C(C)C [Compound 558] yielded an IC50 of under 10 µM.
Work on CCOC(=O)/C=C/c1cccc(CCNC(=O)[C@H](CC(F)F)NC(=O)[C@@H]2C[C@@H](c3ccccc3)CN2C(=O)[C@@H](NC(=O)OCC(C)C)C(C)C)c1 [Compound 559] yielded an IC50 of under 100 µM.
CC(C)COC(=O)N[C@H](C(=O)N1C[C@H](c2ccccc2)C[C@H]1C(=O)N[C@@H](CC(F)F)C(=O)NCCc1cccc(/C=C/C(=O)O)c1F)C(C)C [Compound 560] gave an IC50 of under 1 µM.
In the case of CC(C)COC(=O)N[C@H](C(=O)N1C[C@H](c2ccccc2)C[C@H]1C(=O)N[C@@H](CC(F)F)C(=O)NCCc1cc(/C=C/C(=O)O)ccc1F)C(C)C [Compound 561], the IC50 is reported as under 1 µM.
Compound CC(C)COC(=O)N[C@H](C(=O)N1C[C@H](c2ccccc2)C[C@H]1C(=O)N[C@@H](CC(F)F)C(=O)NCCc1cccc(OCC(=O)O)c1)C(C)C [Compound 562] has an IC50 of under 100 µM.
Work on CC(C)COC(=O)N[C@H](C(=O)N1C[C@H](C2CCCCC2)C[C@H]1C(=O)N[C@@H](CC(F)F)C(=O)NCCc1c(F)ccc(OCC(=O)O)c1F)C(C)C [Compound 565] yielded an IC50 of under 1 µM.
Work on CC(C)COC(=O)N[C@H](C(=O)N1C[C@H](c2ccccc2)C[C@H]1C(=O)N[C@@H](CC(F)F)C(=O)NCCc1[nH]c2ccccc2c1CCC(=O)O)C(C)C [Compound 572] yielded an IC50 of under 100 µM.
With CC(C)COC(=O)N[C@H](C(=O)N1C[C@H](c2ccccc2)C[C@H]1C(=O)N[C@@H](CC(F)F)C(=O)NCCc1cn(CCC(=O)O)c2ccccc12)C(C)C [Compound 573] the IC50 was under 100 µM.
CC(C)COC(=O)N[C@H](C(=O)N1C[C@H](c2ccccc2)C[C@H]1C(=O)N[C@@H](CC(F)F)C(=O)NCCc1c[nH]c2ccccc12)C(C)C [Compound 574] was tested, and the IC50 was under 100 µM.
In the case of CC(C)COC(=O)N[C@@H](CCC(=O)O)C(=O)N1C[C@H](c2ccccc2)C[C@H]1C(=O)N[C@@H](CC(F)F)C(=O)NCCc1c[nH]c2ccccc12 [Compound 575], the IC50 is reported as under 100 µM.
Work on COc1ccc2c(O[C@@H]3C[C@@H](C(=O)N[C@@H](CC(F)F)C(=O)NCCc4c(F)cc(C(=O)O)cc4F)N(C(=O)[C@@H](NC(=O)OC(C)(C)C)C(C)(C)C)C3)cc(-c3ccccc3)nc2c1 [Compound 576] yielded an IC50 of under 1 µM.

Same assay, conditions: Table 6; full-length NS3/NS4A; read-out: Assay A
CC(C)[C@H](O)C(=O)N1C[C@H](OCCCc2ccccc2)CC1C(=O)N[C@@H](CC(F)F)C(=O)NCCc1c(F)cc(C(=O)O)cc1F (stereo partly shown) [Compound 616] was tested, and the IC50 was under 100 µM.

The compounds below were run against T2, NS3 protease domain complexed to a modified form of the NS4A peptide (Pep4AK) (Hepatitis C virus genotype 1b, UniProt P26663) (assay: HCV NS3 protease domain/NS4A cofactor peptide assay (Assay B)). Details: NS3 protease domain/NS4A cofactor peptide assay; read-out: Assay B (IC50 class).
T2 construct: NS3 protease domain (residues 1027–1206 of the HCV polyprotein)
T2 sequence (P26663 1027-1206, other chains not shown): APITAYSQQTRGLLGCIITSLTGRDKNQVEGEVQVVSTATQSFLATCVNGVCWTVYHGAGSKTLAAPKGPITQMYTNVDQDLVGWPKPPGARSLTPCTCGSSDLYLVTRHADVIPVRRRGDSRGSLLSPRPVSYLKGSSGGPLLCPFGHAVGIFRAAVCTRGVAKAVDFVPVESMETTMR
Type: biochemical
Compound CC(C)C[C@H](NC(=O)C1(Cc2ccsc2C(=O)O)Cc2ccccc2N1)C(=O)N[C@@H](CC(F)F)C(=O)NCCc1ccc(C(=O)O)cc1Cl (single isomer, unassigned) [Compound 705] has an IC50 of under 10 µM.
For CC(C)C[C@H](NC(=O)C1(Cc2ccsc2C(=O)O)Cc2ccccc2N1)C(=O)N[C@@H](CC(F)F)C(=O)NCCc1cccc(/C=C/C(=O)O)c1 (single isomer, unassigned) [Compound 706], the IC50 was under 10 µM.
